We go through 30 compounds from patent US10377718B2, “Apelin receptor (APJ) agonists and uses thereof” (Research Triangle Institute, priority 2014, dated 2019).

A word on the EC50: it is the concentration that produces a half-maximal response.

One assay concerns the target T1, apelin receptor (APJ) (Homo sapiens, UniProt P35414).
T1 sequence (P35414 1-380): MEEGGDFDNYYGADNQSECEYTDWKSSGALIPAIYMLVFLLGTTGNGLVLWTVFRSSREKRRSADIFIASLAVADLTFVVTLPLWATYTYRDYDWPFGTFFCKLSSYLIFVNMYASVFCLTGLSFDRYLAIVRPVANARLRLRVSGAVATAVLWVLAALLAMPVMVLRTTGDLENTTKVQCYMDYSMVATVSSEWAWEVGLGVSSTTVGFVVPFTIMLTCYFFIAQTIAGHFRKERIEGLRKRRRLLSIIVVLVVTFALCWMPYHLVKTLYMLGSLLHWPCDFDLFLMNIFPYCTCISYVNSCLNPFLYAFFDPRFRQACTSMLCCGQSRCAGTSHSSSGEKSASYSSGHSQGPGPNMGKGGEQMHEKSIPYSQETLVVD
Nature of the assay: in vitro apelin agonist activity (methods of Giddings et al., Apelin-13 as positive control). Format: cell-based.
Conditions: not given
From the text: The compounds above were studied for their in vitro activity as apelin agonists using the methods described by Giddings et al. Giddings et al., 2010 Int J High Thro Screen. 1:39-47, the contents of which are hereby incorporated by reference in its entirety.
`COc1cccc(OC)c1-c1cc(C(=O)N[C@@H](CC(C)C)C(=O)O)nn1-c1ccc(F)cc1` [compound 34] came in with an EC50 of under 10 µM. On the same count and under the same terms, to `COc1cccc(OC)c1-c1cc(C(=O)N[C@H](C(=O)NCC(=O)O)C2CCCCC2)nn1-c1ccc(F)cc1` [compound 70] belongs under 10 µM. Same read-out and setting: to `COc1cccc(OC)c1-c1cc(C(=O)N[C@H](C(=O)O)C2CCCCC2)nn1C1CCCCC1` [compound 93, (S)-2-Cyclohexyl-2-(1-cyclohexyl-5-(2,6-dimethoxyphenyl)-1H-pyrazole-3-carboxamido)acetic acid] belongs under 10 µM.

Still in this assay, the particulars now being: apelin agonist activity, Giddings et al. method; read-out: agonist activity (EC50).
Turning to `COc1cccc(OC)c1-c1cc(C(=O)N[C@H](CC(=O)O)CC(C)C)nn1-c1ccc(F)cc1` [compound 56, (S)-3-(5-(2,6-Dimethoxyphenyl)-1-(4-fluorophenyl)-1H-pyrazole-3-carboxamido)-5-methylhexanoic acid], the EC50 is under 10 µM. Turning to `COc1cccc(OC)c1-c1cc(C(=O)N[C@H](CC(N)=O)CC(C)C)nn1-c1ccc(F)cc1` [compound 65], the EC50 is under 10 µM.

With `COc1cccc(OC)c1-c1cc(C(=O)N[C@@H](CC(=O)O)CC(C)C)nn1-c1ccc(F)cc1` [compound 67], the EC50 was under 10 µM. Still for that read-out and setting: to `COc1cccc(OC)c1-c1cc(C(=O)N[C@H](C(=O)O)C2CCCCC2)nn1-c1ccc(F)cc1` [compound 71, (S)-2-Cyclohexyl-2-(5-(2,6-dimethoxyphenyl)-1-(4-fluorophenyl)-1H-pyrazole-3-carboxamido)acetic acid] belongs under 10 µM. Same read-out and setting: with `COc1cccc(OC)c1-c1cc(C(=O)N[C@H](CC(=O)NCC(=O)O)CC(C)C)nn1-c1ccc(F)cc1` [compound 77, (S)-2-(3-(5-(2,6-Dimethoxyphenyl)-1-(4-fluorophenyl)-1H-pyrazole-3-carboxamido)-5-methylhexanamido)acetic acid] the figure was under 10 µM; with `COc1cccc(OC)c1-c1cc(C(=O)N[C@H](CC(=O)O)CC(C)C)nn1C1CCCCC1` [compound 79, (S)-3-(1-Cyclohexyl-5-(2,6-dimethoxyphenyl)-1H-pyrazole-3-carboxamido)-5-methylhexanoic acid], under 10 µM.

Turning to `COc1cccc(OC)c1-c1cc(C(=O)N[C@H](CC(=O)NCC(=O)O)CC(C)C)nn1C1CCCCC1` [compound 81, (S)-2-(3-(1-Cyclohexyl-5-(2,6-dimethoxyphenyl)-1H-pyrazole-3-carboxamido)-5-methylhexanamido)acetic acid], the EC50 is under 10 µM. On the same count and under the same terms, with `COc1cccc(OCc2ccccc2)c1-c1cc(C(=O)N[C@H](CC(=O)O)CC(C)C)nn1-c1ccc(F)cc1` [compound 82, (3S)-3-(5-(2-(Benzyloxy)-6-methoxyphenyl)-1-(4-fluorophenyl)-1H-pyrazole-3-carboxamido)-5-methylhexanoic acid] the figure was under 10 µM. In the case of `COC(=O)COc1cccc(OC)c1-c1cc(C(=O)N[C@H](CC(=O)O)CC(C)C)nn1-c1ccc(F)cc1` [compound 86], the EC50 was under 10 µM. In the case of `COc1cccc(OC)c1-c1cc(C(=O)N[C@H](CC(=O)O)CC(C)C)nn1CC1CCCCC1` [compound 95, (S)-3-(1-(Cyclohexylmethyl)-5-(2,6-dimethoxyphenyl)-1H-pyrazole-3-carboxamido)-5-methylhexanoic acid], the EC50 was under 10 µM. Still for that read-out and setting: with `COC(=O)CNC(=O)C[C@H](CC(C)C)NC(=O)c1cc(-c2c(OC)cccc2OC)n(C2CCCCC2)n1` [compound 103, (S)-Methyl 2-(3-(1-cyclohexyl-5-(2,6-dimethoxyphenyl)-1H-pyrazole-3-carboxamido)-5-methylhexanamido)acetate] the figure was under 10 µM. Turning to `COc1cccc(OC)c1-c1cc(C(=O)N[C@H](CC(=O)O)CC(C)C)nn1CC(C)C` [compound 118], the concentration giving a half-maximal response (EC50) is under 10 µM.

On to `COc1cccc(OCc2ccccc2)c1-c1cc(C(=O)N[C@H](CC(=O)O)CC(C)C)nn1C1CCCCC1` [compound 126, (3S)-3-(5-(2-(Benzyloxy)-6-methoxyphenyl)-1-cyclohexyl-1H-pyrazole-3-carboxamido)-5-methylhexanoic acid], for which the EC50 was under 10 µM. Turning to `COC(=O)CNC(=O)C[C@H](CC(C)C)NC(=O)c1cc(-c2c(OC)cccc2OCc2ccccc2)n(C2CCCCC2)n1` [compound 127, Methyl 2-((3S)-3-(5-(2-(benzyloxy)-6-methoxyphenyl)-1-cyclohexyl-1H-pyrazole-3-carboxamido)-5-methylhexanamido)acetate], the EC50 is under 10 µM. The same measure, in the same setting: to `COc1cccc(OCc2ccccc2)c1-c1cc(C(=O)N[C@H](CC(=O)NCC(=O)O)CC(C)C)nn1C1CCCCC1` [compound 129, 2-((3S)-3-(5-(2-(Benzyloxy)-6-methoxyphenyl)-1-cyclohexyl-1H-pyrazole-3-carboxamido)-5-methylhexanamido)acetic acid] belongs under 10 µM; to `COC(=O)CNC(=O)C[C@H](CC(C)C)NC(=O)c1cc(-c2c(OC)cccc2OC)n(CC(C)C)n1` [compound 130, (S)-Methyl 2-(3-(5-(2,6-dimethoxyphenyl)-1-isobutyl-1H-pyrazole-3-carboxamido)-5-methylhexanamido)acetate], under 10 µM. Still for that read-out and setting: to `COc1cccc(OCc2ccccc2)c1-c1cc(C(=O)N[C@H](CC(=O)NCc2ccccc2)CC(C)C)nn1C1CCCCC1` [compound 132] belongs under 10 µM; to `CCCCNC(=O)C[C@H](CC(C)C)NC(=O)c1cc(-c2c(OC)cccc2OCc2ccccc2)n(C2CCCCC2)n1` [compound 133, 5-(2-(Benzyloxy)-6-methoxyphenyl)-N-((S)-1-(butylamino)-5-methyl-1-oxohexan-3-yl)-1-cyclohexyl-1H-pyrazole-3-carboxamide], under 10 µM. As for `COc1cccc(OCc2ccccc2)c1-c1cc(C(=O)N[C@H](CC(=O)NCc2ncco2)CC(C)C)nn1C1CCCCC1` [compound 134, 5-(2-(Benzyloxy)-6-methoxyphenyl)-1-cyclohexyl-N-((S)-5-methyl-1-((oxazol-2-ylmethyl)amino)-1-oxohexan-3-yl)-1H-pyrazole-3-carboxamide], the EC50 was under 10 µM. Same read-out and setting: to `COc1cccc(OCc2ccccc2)c1-c1cc(C(=O)N[C@H](CC(=O)NCC(=O)N(C)C)CC(C)C)nn1C1CCCCC1` [compound 136, 5-(2-(Benzyloxy)-6-methoxyphenyl)-1-cyclohexyl-N-((S)-1-((2-(dimethylamino)-2-oxoethyl)amino)-5-methyl-1-oxohexan-3-yl)-1H-pyrazole-3-carboxamide] belongs under 10 µM; to `COC(=O)CNC(=O)C[C@H](CC(C)C)NC(=O)c1cc(-c2c(OC)cccc2OC)n(-c2ccc(F)cc2)n1` [compound 137], under 10 µM; to `CCOC(=O)CCNC(=O)C[C@H](CC(C)C)NC(=O)c1cc(-c2c(OC)cccc2OCc2ccccc2)n(C2CCCCC2)n1` [compound 138, Ethyl 3-((3S)-3-(5-(2-(benzyloxy)-6-methoxyphenyl)-1-cyclohexyl-1H-pyrazole-3-carboxamido)-5-methylhexanamido)propanoate], under 10 µM. On to `COc1cccc(OC)c1-c1cc(C(=O)N[C@H](CC(=O)NCc2ncco2)CC(C)C)nn1CC(C)C` [compound 140, (S)-5-(2,6-Dimethoxyphenyl)-1-isobutyl-N-(5-methyl-1-((oxazol-2-ylmethyl)amino)-1-oxohexan-3-yl)-1H-pyrazole-3-carboxamide], for which the EC50 is under 10 µM.

Consider `CNC(=O)C[C@H](CC(C)C)NC(=O)c1cc(-c2c(OC)cccc2OC)n(CC(C)C)n1` [compound 141, (S)-5-(2,6-Dimethoxyphenyl)-1-isobutyl-N-(5-methyl-1-(methylamino)-1-oxohexan-3-yl)-1H-pyrazole-3-carboxamide], for which the EC50 is under 10 µM. The same measure, in the same setting: with `COc1cccc(OC)c1-c1cc(C(=O)N[C@H](CC(=O)NCCO)CC(C)C)nn1CC(C)C` [compound 142, (S)-5-(2,6-Dimethoxyphenyl)-N-(1-((2-hydroxyethyl)amino)-5-methyl-1-oxohexan-3-yl)-1-isobutyl-1H-pyrazole-3-carboxamide] the figure was under 10 µM; with `CCCCNC(=O)C[C@@H](CC(C)C)NC(=O)c1cc(-c2c(OC)cccc2OC)n(CC(C)C)n1` [compound 153], under 10 µM.

The next assay concerns C57BL/6 mice. As to the kind of experiment: in vivo blood pressure lowering activity, non-invasive blood pressure and heart rate after IP injection. As to conditions: Apelin-13 at 0.4 nmol/kg. The procedure:
The compounds were also assayed for blood pressure activity using C57BL/6 mice and the procedure described by Tatemoto et al. The novel peptide apelin lowers blood pressure via a nitric oxide-dependent mechanism. Regul Pept. 2001; 99: 87-92. […] Studies have been published citing reductions in blood pressure occur following peptide apelin administration. Apelin-13 was used as a positive control. Knockout C57BL/6 mice lacking APJ have cardiovascular deficiencies. […] Charo et al. Am J Physiol Heart Circ Physiol. 2009 November 297(5):[…] et al. J Physiol Biochem. 2007 December; 63(4):359-73. Blood pressure measurements in these species of mice have been reported in the literature. […] et al. Am J Physiol Heart Circ Physiol. 2003 February; 284(2):[…]-74. On the first day of the study, 11 animals were treated with apelin-13, 11 with vehicle alone, and 11 as sham controls. The two later groups were used to determine effects (if any) of the vehicle or injection alone on blood pressure (BP). The experiment was conducted as follows: The animals were restrained and a baseline measurement taken for 5 min. Animals were injected and immediately monitored for 15 minutes. The effect of test agents should be apparent within this time. Tatemoto et al. reported that the effects of Apelin-13 were apparent within minutes. Tatemoto et al. 2001 Immediately following dosing, blood pressure (diastolic, systolic and mean pressure) and heart rate for each animal was recorded for up to 15 minutes using a Kent Scientific CODA Non-Invasive Blood Pressure System. […] On day 2-5 a similar protocol was used in increasing doses. The animals were randomized daily in three groups of 11 to receive either of the two experimental compounds by IP injection. […] At the end of the 5-day dosing period, all animals were humanely euthanized. [table]
Regarding Apelin-13 [reference compound], the “lowers blood pressure by” value is recorded as about 10%.
